Measured values reported in ChEMBL document CHEMBL1955773, “Hit to lead SAR study on benzoxazole derivatives for an NPY Y5 antagonist” (Bioorg Med Chem Lett, 2012).

Tests used:
[1] = Metabolic stability of the compound in rat microsomes assessed as compound remaining after 30 mins; assay type: ADME, Microsome; settings: read-out: Stability
[2] = Volume of distribution at steady state in rat at 0.5 mg/kg, iv and 1 mg/kg, po; assay type: ADME, organism-based; settings: in vivo, read-out: Vdss
[3] = AUC (0 to infinity) in rat at 0.5 mg/kg, iv and 1 mg/kg, po; assay type: ADME, organism-based; settings: plasma
[4] = Bioavailability in rat at 0.5 mg/kg, iv and 1 mg/kg, po; assay type: ADME, organism-based; settings: in vivo
[5] = Ratio drug uptake in brain to plasma of rat at 1 mg/kg, po; assay type: ADME, organism-based; design: dose 1 mg/kg, route oral; settings: read-out: BPR
[6] = Total clearance in rat at 0.5 mg/kg, iv and 1 mg/kg, po; assay type: ADME, organism-based; settings: in vivo
[7] = Cmax in rat at 0.5 mg/kg, iv and 1 mg/kg, po; assay type: ADME, organism-based; settings: in vivo
Cerebrospinal fluid = assay: Drug uptake in rat cerebrospinal fluid at 0.5 mg/kg, iv and 1 mg/kg, po; assay type: ADME, organism-based; settings: in vivo, read-out: Drug uptake

SMILES	remaining at 0.5 h [1] [%]	other results
CCS(=O)(=O)c1ccc2oc(Nc3ccc(C(C)(C)C)cc3)nc2c1	27	–
CCS(=O)(=O)c1ccc2oc(Nc3ccccc3)nc2c1	53	–
CCS(=O)(=O)c1ccc2oc(Nc3ccc(Cl)cc3)nc2c1	81	–
CCS(=O)(=O)c1ccc2oc(Nc3ccc(C(F)(F)F)cc3)nc2c1	101	–
CCS(=O)(=O)c1ccc2oc(Nc3cccc(C(F)(F)F)c3)nc2c1	63	–
CCS(=O)(=O)c1ccc2oc(Nc3ccccc3C(F)(F)F)nc2c1	68	–
CCS(=O)(=O)c1ccc2oc(Nc3ccc(OC(F)(F)F)cc3)nc2c1	97	–
CCS(=O)(=O)c1ccc2oc(Nc3ccc(OC(C)C)cc3)nc2c1	73	Vd [2]: 2.62 L/kg; AUC(0-inf) [3]: 40 ng·h/mL; bioavailability [4]: 16%; Kp [5]: 2.63; clearance [6]: 66 mL/min/kg; Cmax [7]: 6 ng/mL; concentration (Cerebrospinal fluid): 8.8 nM
CCS(=O)(=O)c1ccc2oc(Nc3ccc(N4CCOCC4)cc3)nc2c1	88	–
CCS(=O)(=O)c1ccc2oc(Nc3ccc(N4C[C@@H](C)O[C@@H](C)C4)cc3)nc2c1	85	Vd [2]: 1.74 L/kg; AUC(0-inf) [3]: 260 ng·h/mL; bioavailability [4]: 52%; Kp [5]: 0.64; clearance [6]: 33 mL/min/kg; Cmax [7]: 26 ng/mL; concentration (Cerebrospinal fluid): 15.9 nM
CCS(=O)(=O)c1ccc2oc(Nc3ccc(N4C[C@@H](C)O[C@@H](C)C4)c(F)c3)nc2c1	61	–
CCS(=O)(=O)c1ccc2oc(Nc3ccc(N4C[C@@H](C)O[C@@H](C)C4)nc3)nc2c1	59	–
CCOc1ccc(Nc2nc3cc(S(C)(=O)=O)ccc3o2)cc1	62	–
CCOc1ccc(Nc2nc3cc(S(=O)(=O)C(C)C)ccc3o2)cc1	49	–
CCOc1ccc(Nc2nc3cc(S(=O)(=O)C(C)(C)C)ccc3o2)cc1	46	–
CCOc1ccc(Nc2nc3cc(NS(=O)(=O)CC)ccc3o2)cc1	59	–
CCOc1ccc(Nc2nc3ccc(S(=O)(=O)CC)cc3o2)cc1	81	–
CCOc1ccc(Nc2nc3ccc(NS(=O)(=O)CC)cc3o2)cc1	86	–
CCOc1ccc(Nc2nc3ccc(NS(=O)(=O)C(C)(C)C)cc3o2)cc1	57	–
C[C@@H]1CN(c2ccc(Nc3nc4ccc(NS(=O)(=O)C(C)(C)C)cc4o3)cc2)C[C@H](C)O1	68	–
CCS(=O)(=O)c1ccc2oc(NC3CCCCC3)nc2c1	45	–
CCS(=O)(=O)c1ccc2oc(NCc3ccccc3)nc2c1	46	–
CCS(=O)(=O)c1ccc2oc(NC(C)(C)c3ccccc3)nc2c1	35	–
CCS(=O)(=O)c1ccc2oc(Nc3ccc(C(F)(F)F)nc3)nc2c1	99	–
CCS(=O)(=O)c1ccc2oc(Nc3ccc(C(F)(F)F)cn3)nc2c1	97	–
CCS(=O)(=O)c1ccc2oc(Nc3ccc(N4CCOCC4)nc3)nc2c1	81	–
CCS(=O)(=O)c1ccc2oc(NC3CCC(C(C)(C)C)CC3)nc2c1 (mixture of isomers)	1	–
